Experimental data published in patent publication US5236955A, “Anti-fungal agent” (Washington University, priority 1992, dated 1993).

Columns and labels:
C. neoformans [1] = test: Viability of C. neoformans (viable cells relative to EtOH control culture); assay type: cell-based, Cryptococcus neoformans; conditions: for fungicidal / fungistatic effect on C. neoformans: screening assay; for log reduction at 300 µM: relative to 0.1% EtOH control, read-out: decrease in viable cells (converted); for attenuation of fungicidal activity on shortening by one methylene: versus corresponding oxatetradecanoic acid, 300 μM
Protocol: (§1) Panel A, survey of the effects of several oxatetradecanoic acids on the growth of C. neoformans. A culture of C. neoformans was grown at 30° C. in SAB media to midlog phase (A600 ~0.5). A single dose of fatty acid was then added to subcultures (final concentration=300 μM). EtOH(0.1%) was used as a negative control. Amphotericin B (AmB) was added (final concentraton=55 μM) as a positive control. Aliquots were withdrawn from the subcultures 0, 0.5, 2, 4, 7, 21, and 24 h after these additions and then absorbance at 600 nm was measured. All assays were done in duplicate or triplicate. A representative test is shown. Panel B, survey of the effects of oxatetradecanoic acids, dioxatetradecanoic acids and oxatridecanoic acids on the viability of C. neoformans. Fatty acid analog was added to the cultures as in Panel A. Aliquots were withdrawn 0.5, 2, 4, 7 or 8, and 24 h later and plated on SAB-agar at various dilutions to determine the number of viable organisms/ml culture. All assays were done in duplicate. Data from a representative test are expressed as the ratio of viable cells in treated cultures relative to a control culture that received 0.1% EtOH. A positive control culture received a single dose of amphotericin B (55 μM); Panel C, dose-dependent reduction in the viability of C. neoformans after addition of 4-oxatetradecanoic acid (O4) to cultures during log-phase growth at 30° C. in SAB. A single dose of the analog was given at T=0 h in the amount indicated and aliquots of the culture were withdrawn at various times to determine the number of viable cells. All assays were done in triplicate. A representative test is shown.
(§2) Saccharomyces cerevisiae strain YM2061 (MATa ura3-52 his3Δ200 ade2-101 lys2-801 met LEU2::pRY181 can1; Flick and Johnston, Mol. Cell. Biol. 10, 4757-4769 (1990), Candida albicans strain B311 (obtained from the American Type Tissue Culture, Rockville, Md.), or Cryptococcus neoformans strain L210425 (a clinical isolate that is part of the permanent culture collection of the Mycology Laboratory, Barnes Hospital, St. Louis, Mo.) were grown overnight at 30 C. The S. cerevisiae strain was incubated in YPD medium (1% bacto-yeast extract, Gibco, Long Island, N.Y.), 2% bacto-peptone (Gibco), 2% dextrose). The C. albicans and C. neoformans strains were grown in Sabouraud's media (SAB; 2% (w/v) dextrose, 1% bacto-peptone). The following morning the cultures were diluted into fresh medium to the desired density at 600 nm (early log phase), and subsequently incubated in a rotary shaker at 30° C. until an A600 =0.5 (mid log phase) was achieved. The culture was then divided into 10 ml aliquots. A single 10 μl aliquot of a stock solution of fatty acid analog (prepared in various concentrations using absolute ethanol) was added to the culture so that the final concentration of the compound was 100-500 μM (T=0). Ten microliters of ethanol alone was added to one 10 ml culture which served as the negative control. Amphotericin B (AmB; in the form of Fungizone, Squibb) was added (final concentration=55 μM) to another culture which served as the positive control. At T=0 and 0.5-24 h after addition of fatty acid analog to the subcultures, an aliquot was removed for determining the density of the subculture at 600 nm. Cell viability was determined at each of these time points by (i) serially diluting the aliquot in 0.15M NaCl and counting cell number in a hemocytometer and (ii) plating 2-3 of the dilutions in triplicate onto plates of SAB/agar (C. albicans and C. neoformans) or YPD/agar (S. cerevisiae). These plates were subsequently incubated at 30° C. for 24-48 hr to allow for the growth of colonies. The data were expressed as the ratio of viable cells/ml in the fatty acid analog treated subculture to the number of viable cells/ml in the negative (ethanol) control culture.

C. neoformans [2] = test: Growth of C. neoformans cultures (absorbance at 600 nm); assay type: cell-based, Cryptococcus neoformans
Protocol: as §1
as §2, with “Amphotericin B (AmB; in the form of Fungizone, Squibb) was added (final concentration=55 μM) to another culture which served as the positive control. At T=0 and 0.5-24 h after addition of fatty acid analog to the subcultures, an aliquot was removed for determining the density of the subculture at 600 nm.” left out, “These plates were subsequently incubated at 30° C. for 24-48 hr to allow for the growth of colonies.” left out, “culture. […]” for “culture.”

S. cerevisiae = test: Viability of S. cerevisiae; assay type: cell-based; conditions: Saccharomyces cerevisiae
Protocol: (§3) Oxatetradecanoic acids were added (final concentraton=25-500 μM) as a single dose to log phase cultures of C. alibcans grown in SAB at 30° C. (Panels A and B) and to log phase cultures of S. cerevisiae grown in YPD at 30° C. (Panels C and D). The results were compared to the number of viable organisms present in cultures treated with 0.1% EtOH alone. […] A single does of alphotericin B (final concentration=55 μM) was added to parallel cultures which served as positive controls. Assays were done in duplicate. Representative tests are shown.
as §2

C. albicans = test: Viability of C. albicans; assay type: cell-based; conditions: Candida albicans
Protocol: as §3, §2

S. cerevisiae NMT = molecular target: T1, S. cerevisiae NMT (Saccharomyces cerevisiae, UniProt P14743); test: In vitro discontinuous NMT assay; assay type: biochemical; conditions: 40 μM fatty acid, HIV-1 Pr55gag octapeptide
T1 construct: made in house; host or cells: E. coli
Protocol: (§4) Details of the single point, discontinuous, in vitro NMT assay are described in Examples, below. A tritiated octapeptide derived from residues 2-9 of […] HIV-I Pr55^gag (GARA[^3 H]SVLS-NH2) was used in all assays. The amount of analogpeptide produced is expressed as a percentage of myristoylpeptide generated in a control incubation. All assays were performed in triplicate. The mean ±1 standard deviation is shown. Under the assay conditions employed, the amount of myristoylpeptide generated by purified E. coli-derived S. cerevisiae NMT ranged from 5×10^5 to 2×10^6 pmol/mg enzyme/min while the amount of myristolypeptide produced by purified E. coli-derived, C. albicans NMT ranged from 4×10^5 to 1.5×10^6 pmol/mg enzyme/mni.
(§5) In vitro discontinuous NMT assay--This assay was carried out by conventional procedures as described by Duronio et al., Methods: A Companion to Methods in Enzymol. 1, 253-263 (1990); Kishore et al., J. Biol. Chem. 266, 8835-8853 (1991). Briefly, a single point assay was performed by first converting myristic acid or a fatty acid analog (final concentration=40 μM) to its CoA thioester using Pseudomonas acylCoA synthetase (EC 6.2.1.3, Sigma Chemical Co.). Following a 25 min incubation at 30° C., purified E. coli derived S. cerevisiae or C. albicans NMT [Rudnick et al., Ibid. 265, 13370-13378 (1990); Wiegand et al., J. Biol. Chem. 267, 8591-8598 (1992)], final concentration=0.1 μg/ml, was added to the reaction mixture together with a tritiated peptide substrate derived from residues 2-9 of the HIV-1 Pr55^gag (Gly-Ala-Arg-[^3 H]Ala-Ser-Val-Leu-Ser-NH2) [Kishore et al., supra (1991); specific activity=1.2 Ci/mmol; final concentration=23 μM]. After an additional 10 min incubation at 30° C., the enzymatically generated, radiolabeled acylpeptide was purified by reverse phase HPLC and quantitated using an in-line scintillation counter [Kishore et al., supra, (1991)]. The amount of analogpeptide formed was expressed as a percentage of the amount of myristoylpeptide formed in a parallel reference assay. All assays were performed in duplicate or triplicate.
(§6) In vitro studies of purified S. cerevisiae and C. albicans NMT reveal differences in the kinetic properties of oxatetradecanoic and oxatridecanoic acid analogs--To begin to understand the mechanism which underlies the fungicidal activities of some but not all of the oxygen containing fatty acid analogs, the relative activities of the sixteen oxatri-, oxatetradecanoic acids and dioxatetradecanoic acids were examined in an in vitro assay. The two step assay measures NMT-dependent transfer of the acyl chain from an enzymatically generated acylCoA to a radiolabeled peptide substrate. […]

C. albicans NMT = molecular target: T2, C. albicans NMT (Candida albicans, UniProt P30418); test: In vitro discontinuous NMT assay; assay type: biochemical; conditions: 40 μM fatty acid, HIV-1 Pr55gag octapeptide
T2 construct: made in house; host or cells: E. coli
Protocol: as §4, §5, §6

[3] = Cryptococcus neoformans, 300 μM single dose

T1 sequence (P14743 whole entry): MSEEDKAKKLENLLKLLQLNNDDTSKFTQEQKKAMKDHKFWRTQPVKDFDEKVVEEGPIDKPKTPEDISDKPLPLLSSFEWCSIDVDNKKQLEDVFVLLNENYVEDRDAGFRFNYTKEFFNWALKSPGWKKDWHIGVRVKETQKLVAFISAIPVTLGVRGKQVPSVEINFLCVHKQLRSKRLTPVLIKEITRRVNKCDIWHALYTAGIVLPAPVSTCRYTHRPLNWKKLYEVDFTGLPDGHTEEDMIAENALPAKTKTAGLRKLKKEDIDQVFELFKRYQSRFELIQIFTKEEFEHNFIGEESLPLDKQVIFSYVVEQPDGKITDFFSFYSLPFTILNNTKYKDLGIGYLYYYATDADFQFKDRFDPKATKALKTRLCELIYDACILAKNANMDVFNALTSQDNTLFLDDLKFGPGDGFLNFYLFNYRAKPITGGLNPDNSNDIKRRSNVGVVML
T2 sequence (P30418 whole entry): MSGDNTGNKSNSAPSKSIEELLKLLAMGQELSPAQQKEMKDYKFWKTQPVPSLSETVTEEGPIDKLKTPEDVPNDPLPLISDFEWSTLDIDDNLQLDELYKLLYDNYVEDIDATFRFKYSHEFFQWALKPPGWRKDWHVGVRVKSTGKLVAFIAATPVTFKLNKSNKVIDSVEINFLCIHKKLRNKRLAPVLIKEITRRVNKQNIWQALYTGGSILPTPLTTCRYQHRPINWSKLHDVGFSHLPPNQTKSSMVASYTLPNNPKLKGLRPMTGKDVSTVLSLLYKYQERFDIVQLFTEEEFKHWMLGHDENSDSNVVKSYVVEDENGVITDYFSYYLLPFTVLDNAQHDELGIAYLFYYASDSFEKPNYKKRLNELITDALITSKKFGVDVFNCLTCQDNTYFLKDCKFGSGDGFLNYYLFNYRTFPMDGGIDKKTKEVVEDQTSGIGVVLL

Which results are given for C[C@@H]1[C@H](O)[C@@H](C)/C=C/C=C/C=C/C=C/C=C/C=C/C=C/[C@H](O[C@@H]2O[C@H](C)[C@@H](O)[C@H](N)[C@@H]2O)C[C@@H]2O[C@](O)(C[C@@H](O)C[C@@H](O)[C@H](O)CC[C@@H](O)C[C@@H](O)CC(=O)O[C@H]1C)C[C@H](O)[C@H]2C(=O)O [Amphotericin B, reference compound]?
log reduction at 55 µM (C. neoformans [1]; Cryptococcus neoformans, read-out: reduction in viable cell number): 6; effect on growth of C. neoformans, as determined by optical density (C. neoformans [2]; 55 μM, positive control): growth arrest

CCCCCCOCCCCCCC(=O)O [O8] was tested. Which “fungicidal / fungistatic effect on C. neoformans” value (shortened to “fungicidal / fungistatic effect”) (C. neoformans [1]; 300 μM single dose) did it give?
Its value is “no measurable effect on the growth”.

With CCCCCCCCCOCCCC(=O)O [O5, 5-oxatetradecanoic acid] as the molecule, how does the “fungicidal / fungistatic effect” value (C. neoformans [1]; 300 μM single dose) read?
Its value is “fungicidal”.

What about the log reduction at 300 µM (C. neoformans [1]; [3]) of the same molecule?
Its log reduction at 300 µM is 3.

And the log reduction at 300 µM (S. cerevisiae; 300 μM, 2 hr after addition, read-out: reductions in the number of viable S. cerevisiae)?
The log reduction at 300 µM was less than 0.699.

And the log reduction at 500 µM (S. cerevisiae; 500 μM, read-out: reduction in the number of viable organisms (S. cerevisiae))?
The log reduction at 500 µM was 1 to 2.

What about the log reduction at 300 µM (C. albicans; 300 μM, 2 hr after addition, read-out: reductions in the number of viable C. albicans) of the same molecule?
Its log reduction at 300 µM is less than 0.699.

And the log reduction at 500 µM (C. albicans; 500 μM, read-out: reduction in the number of viable organisms (C. albicans))?
The log reduction at 500 µM was 1 to 2.

Which results are given for CCCCCCCCCCOCCC(=O)SCCNC(=O)CCNC(=O)[C@H](O)C(C)(C)COP(=O)(O)OP(=O)(O)OC[C@H]1O[C@@H](n2cnc3c(N)ncnc32)[C@H](O)[C@@H]1OP(=O)(O)O [4-oxatetradecanoylCoA]?
activity of analogCoA relative to myristoylCoA (S. cerevisiae NMT): -3 fold; activity of analogCoA relative to myristoylCoA (C. albicans NMT): -3 fold

For CCCCCCCOCCCCCC(=O)O [O7], which “fungicidal / fungistatic effect” value (C. neoformans [1]; 300 μM single dose) is on record?
Its value is “no measurable effect on the growth”.

CCCCCCCCCOCCC(=O)O [4-oxatridecanoic acid, 4-Oxatridecanoic acid] was tested. Which “time needed to produce the decrease in viable cells” value (C. neoformans [1]; 300 μM single dose) did it give?
Its value is 6 to 7 h.

What about the log reduction at 300 µM (C. neoformans [1]; [3]) of the same molecule?
The log reduction at 300 µM was 3.

And the “attenuation of fungicidal activity on shortening by one methylene” value (C. neoformans [1])?
The value was 10 fold.

How did the “activity of analogCoA relative to myristoylCoA” value (S. cerevisiae NMT) turn out when CCCCCCCCCCCOCC(=O)SCCNC(=O)CCNC(=O)[C@H](O)C(C)(C)COP(=O)(O)OP(=O)(O)OC[C@H]1O[C@@H](n2cnc3c(N)ncnc32)[C@H](O)[C@@H]1OP(=O)(O)O [3-oxatetradecanoylCoA] was run?
Its value is “equivalent to myristate”.

What about the “activity of analogCoA relative to myristoylCoA” value (C. albicans NMT) of the same molecule?
The value was “equivalent to myristate”.

For CCOCCCCCCCCCCC(=O)O [O12], which “fungicidal / fungistatic effect” value (C. neoformans [1]; 300 μM single dose) is on record?
Its value is “no measurable effect on the growth”.

Which “fungicidal / fungistatic effect” value (C. neoformans [1]; 300 μM single dose) does the source give for CCCCOCCCCCCCCC(=O)O [O10] here?
Its value is “no measurable effect on the growth”.

What does the source list for CCCCCCCCOCCCC(=O)O [5-oxatridecanoic acid, 5-Oxatridecanoic acid]?
fungicidal / fungistatic effect on C. neoformans (C. neoformans [1]; 300 μM single dose): not active; attenuation of fungicidal activity on shortening by one methylene (C. neoformans [1]): 10 fold

For COCCCCCCCCOCCC(=O)O [4,13 dioxatetradecanoic acid, 4,13-Dioxatetradecanoic acid], which “fungicidal / fungistatic effect” value (C. neoformans [1]; 300 μM single dose) is on record?
Its value is “did not convert O13 to an active analog”.

With CCCOCCCCCCCCCC(=O)O [O11, 11-Oxatetradecanoic acid] as the molecule, how does the “fungicidal / fungistatic effect” value (C. neoformans [1]; 300 μM single dose) read?
The value was “no measurable effect on the growth”.

What about the “effect on growth of C. neoformans, as determined by optical density” value (C. neoformans [2]; single 300 μM dose, exponential phase, 30° C., SAB, up to 24 h) of the same molecule?
Its value is “virtually no effect on growth”.

For COCCCCCCCOCCCC(=O)O [5,13 dioxatetradecanoic acid, 5,13-Dioxatetradecanoic acid], which “fungicidal / fungistatic effect” value (C. neoformans [1]; 300 μM single dose) is on record?
The value was “did not convert O13 to an active analog”.
